# Test results reported in patent US20210277102A1, “COMPOSITIONS AND METHODS FOR TREATING A TUMOR SUPPRESSOR DEFICIENT CANCER” (BETH ISRAEL DEACONESS MEDICAL CENTER, INC., priority 2016, published 2021).
# Entries after “also recorded” stand apart in the source; their conditions may differ.
# System: Pten^pc−/−; Trp53^pc−/− prostate tumors
# Assay: In vivo drug and antibody treatment of Pten^pc−/−; Trp53^pc−/− mice (MRI, flow cytometry, histology)
# Design: species or system mouse
# Experimental: Mice were allocated at random to experimental groups and studies were performed in an unblended manner. For treatment with the CXCR2 antagonist, SB225002 (Cayman Chemical #13336) was dissolved in DMSO (10 mg/ml) and diluted in vehicle (0.9% NaCl, 0.3% Tween 80) for in vivo administration. Mice (4 months of age) were treated daily for 10 days by intraperitoneal injection (5 mg/kg) and prostate tumor tissue (anterior lobes) was subjected to Flow Cytometry and histological analysis. For MRI analysis, mice (4 months of age) were treated daily for 21 days (Pten^pc-/-; Zbtb7a^pc-/-), for 14 days (Pten^pc-/-; Trp53^pc-/-) or for 14 days (Pten^pc-/-; Pml^pc-/-) by intraperitoneal injection (5 mg/kg). For depletion of Gr-1+/CD11b+ cells, Ly6G-depletion antibody (1A8, BioXcell) and control Rat IgG2a antibody (BioXcell) were diluted in phosphate-buffered saline (PBS) for in vivo administration. Mice (4 months of age) were treated every other day for 10 days by intraperitoneal injection (200-300 μg/mouse). InVivoMAb anti-mouse Ly6G/Ly6C (Gr-1) antibody, clone RB6-8C5 (BE0075, BioXcell), and control Rat IgG2b antibody (BE0090, BioXcell) were diluted in PBS and Pten^pc-/-; Trp53^pc-/- mice were treated every other day for 14 days by intraperitoneal injection (200 μg/mouse). For neutralization of CXCL5, anti-Mouse CXCL5 antibody (Leinco Technologies) and control Rat IgG2a antibody (BioXcell) were diluted in PBS and injected every other day for 21 days by intraperitoneal injection (20 μg/mouse). Tumor volume quantification was performed by using VivoQuant and Image J software. All mouse prostate MRI imaging analysis was performed at Small Animal Imaging Core at BIDMC and acquired on an […] Model M2 1T tabletop scanner. For western blotting, cell lysates were prepared by homogenizing tumor tissue with NP40 Buffer (Boston Bioproducts) supplemented with protease (Roche) and HALT phosphatase inhibitor cocktails (Thermo Scientific) and subsequently subjected to SDS-Gel separation (Invitrogen) and western blotting. The following antibodies were used for western blotting: […] (AC-74; Sigma), CXCL5 (R & D Systems #AF433), pIRAK4 (Cell Signaling Technology #11927S), IRAK4 (Cell Signaling Technology #4363P), IκBα (Cell Signaling Technology #4812S), Zbtb7a (hamster anti-Zbtb7a clone 13E9), PTEN (Cell Signaling Technology #9559S), p53 (Cell Signaling Technology #2524S), p21 (Santa Cruz Biotechnology sc-6246) and HSP90 (BD Biosciences BDB610419). Western blots were quantified using Image J software. For immunohistochemistry, tissues and organoids were fixed in 4% paraformaldehyde and embedded in paraffin in accordance with standard procedures. Embedding and hematoxylin and eosin staining of sections were performed by the Histology Core at BIDMC and analyzed by a pathologist. […]
# [1] = Trp53^pc−/− prostate tumors after treatment
structure (smiles),measurement,setting,value
O=C(Nc1ccc([N+](=O)[O-])cc1O)Nc1ccccc1Br [SB225002],tumor growth (tumor volume by MRI),"Trp53^pc−/− mice, intraperitoneal injection, vs vehicle or control IgG",significantly suppressed the tumor growth; also recorded: significant inhibition of tumor growth
same,Treg cells (CD4+/FoxP3+) in tumor (flow cytometry),[1],less Foxp3+ cells; also recorded: less Treg cells
same,intra-tumoral Gr-1+/CD11b+ cells (flow cytometry),[1],decrease of Gr-1+/CD11b+ cells
same,tumor burden (histological analysis),"Trp53^pc−/− tumors, anterior prostate lobes",reduced tumor burden; also recorded: significantly diminished tumor involvement
